In experiment [1] the test system is BA 101. As to conditions: 12 g/L butanol. As to the method: (§1) Butanol tolerances of different strains are investigated and compared according to the maximal specific growth rates achieved under the challenge of different concentrations of butanol. Seed cultures are prepared the same way as those used for fermentor fermentation. Then, seeds of different strains are inoculated into 10 ml of CGM medium in serum tubes supplemented with different concentrations of butanol. The tubes are incubated at 37° C. and optical densities (OD600) are measured every 2 h. Growth curves may be drawn according to the OD600 data. Maximal specific growth rates (h^−1) of different strains under different butanol concentrations may be calculated based on the growth curves.

In experiment [2] the test system is NCIMB 8052. As to conditions: 12 g/L butanol. As to the method:
as §1

The test system of experiment [3] is ATCC 824. The settings on record: 12 g/L butanol. Here is the method: as §1
Experiment [4] has as its system JB200. As to conditions: CGM medium, 37° C., OD600. As to the method: as §1
For experiment [5], the system named is C. acetobutylicum ATCC 55025 (parental strain). Here is the method:
as §1

Turning to butanol, the “growth in the presence of butanol” value in experiment [1], in experiment [2] and in experiment [3] was “none of them could grow” in each case. Further, the “butanol concentration at which cells still grew” value in experiment [4] was determined as 16 g/L. Moreover, in experiment [5] (CGM medium, 37° C., OD600), the “butanol concentration above which cell growth stopped” value is listed as “higher than 12 g/L”. Also, the “butanol concentration at which growth usually stops (cells lysed)” value in experiment [5] (general statement, parental strain) is listed as 10-12 g/L.

(Values after US8450093B1, “Adaptive engineering of clostridium for increased butanol production” (The Ohio State University, priority 2010, dated 2013).)
